The record followed here is ChEMBL document CHEMBL1131401, “Potent and selective bicyclic lactam inhibitors of thrombin: Part 2: P1 modifications” (Bioorg Med Chem Lett, 1998).

One experiment has as its target Prothrombin (Homo sapiens, UniProt P00734). Put plainly: In vitro inhibitory activity against thrombin(FIIa).
In the next experiment the test system is Rattus norvegicus. In words: In vivo mean occlusion time for the antithrombic activity in rat arterial thrombosis model. Type of experiment: functional.
Experiment [1] addresses T1, Serine protease 1 (Homo sapiens, UniProt P07477). Put plainly: In vitro inhibitory activity against trypsin.
Experiment [2] addresses T1, Serine protease 1. Put plainly: In vitro inhibitory activity against trypsin at concentration 100 uM.

T1 sequence (P07477 whole entry): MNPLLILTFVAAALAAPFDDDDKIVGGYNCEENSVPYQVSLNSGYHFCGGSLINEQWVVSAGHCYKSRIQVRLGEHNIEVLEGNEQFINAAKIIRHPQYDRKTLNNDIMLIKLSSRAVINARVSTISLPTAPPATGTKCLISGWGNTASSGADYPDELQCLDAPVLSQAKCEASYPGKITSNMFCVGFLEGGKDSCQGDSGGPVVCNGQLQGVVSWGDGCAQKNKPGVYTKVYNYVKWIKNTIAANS

One may read the IC50 as the point on the concentration scale where inhibition reaches its midpoint. A higher IC50 goes with lower potency. In the case of `N=C(N)N1CCCC(C[C@@H](NC(=O)[C@@H]2CC[C@H]3CN(C(=O)CCc4ccccc4)CC(=O)N32)C(=O)c2nccs2)C1` (some centres undefined), the figures for the concentration for half-maximal inhibition (IC50) against Prothrombin and at Serine protease 1 [1] were 137 nM and 31600 nM, respectively. In addition, the MOT in the experiment with Rattus norvegicus stood at 27 min.
As to `N=C(N)N1CCCC(C[C@H](NC(=O)[C@@H]2CC[C@H]3CN(C(=O)CCc4ccccc4)CC(=O)N32)C(=O)c2nccs2)C1` (some centres undefined), the half-inhibitory concentration (IC50) against Prothrombin stood at 30 nM; against Serine protease 1 [1], 4360 nM. In the experiment with Rattus norvegicus, this molecule returned an MOT above 60 min.
In general, inhibition refers to the drop in the measured response relative to a control, in per cent. A low value points to a weak effect. On to `N=C(N)N1CCC([C@@H](NC(=O)[C@@H]2CC[C@H]3CN(C(=O)CCc4ccccc4)CC(=O)N32)C(=O)c2nccs2)CC1`, for which, on Prothrombin, the IC50 was 150 nM. The molecule also gave an inhibition at Serine protease 1 [2] of 31%.
`N=C(N)NCCC[C@H](NC(=O)[C@@H]1CC[C@H]2CN(C(=O)CCc3ccccc3)CC(=O)N21)C(=O)c1nccs1` gave an MOT in the experiment on Rattus norvegicus of 42 min. This molecule came in with an IC50 against Serine protease 1 [1] below 1 nM.
With `N=C(N)N1CCC([C@H](NC(=O)[C@@H]2CC[C@H]3CN(C(=O)CCc4ccccc4)CC(=O)N32)C(=O)c2nccs2)CC1`, the IC50 against Prothrombin came out at 1 nM; at Serine protease 1 [1], 11900 nM. This molecule came in with an MOT in the experiment with Rattus norvegicus of 57 min.
As to `N[C@H]1CC[C@H]([C@H](NC(=O)[C@@H]2CC[C@H]3CN(C(=O)CCc4ccccc4)CC(=O)N32)C(=O)c2nccs2)CC1`, the 50% inhibitory concentration (IC50) came to 33 nM on Prothrombin and 8990 nM at Serine protease 1 [1]. The molecule also returned an MOT in the experiment with Rattus norvegicus of 48 min.
Regarding `N=C(N)c1cccc(C[C@H](NC(=O)[C@@H]2CC[C@H]3CN(C(=O)CCc4ccccc4)CC(=O)N32)C(=O)c2nccs2)c1`, the half-maximal inhibitory concentration (IC50) on Prothrombin came to 77 nM; at Serine protease 1 [1], 7750 nM. Moreover, the MOT with Rattus norvegicus came to 18 min.
